Assays:
[1] = target: T1, human liver glycogen phosphorylase a (HLGPa) (Homo sapiens, UniProt P06737); experiment: Human liver glycogen phosphorylase a enzymatic activity assay; assay type: biochemical; details: 15 nM HLGPa, coupled resorufin fluorescence readout, 15 min preincubation; assay run with and without 10 mM glucose, not stated which applies
T1 construct: creating a full-length cDNA fused at the 5′ end to codons for methionine-glycine-alanine-histidine; 6x histidine tag (leader Met-Gly-Ala-His6-Gly-Gly) (N); Tev protease cleavage site (Glu-Asn-Leu-Tyr-Phe-Gln-Gly-Gly) (N); made in house; host or cells: E. coli (bacterial expression plasmid pTXK1007LTev)
T1 sequence (P06737 2-847): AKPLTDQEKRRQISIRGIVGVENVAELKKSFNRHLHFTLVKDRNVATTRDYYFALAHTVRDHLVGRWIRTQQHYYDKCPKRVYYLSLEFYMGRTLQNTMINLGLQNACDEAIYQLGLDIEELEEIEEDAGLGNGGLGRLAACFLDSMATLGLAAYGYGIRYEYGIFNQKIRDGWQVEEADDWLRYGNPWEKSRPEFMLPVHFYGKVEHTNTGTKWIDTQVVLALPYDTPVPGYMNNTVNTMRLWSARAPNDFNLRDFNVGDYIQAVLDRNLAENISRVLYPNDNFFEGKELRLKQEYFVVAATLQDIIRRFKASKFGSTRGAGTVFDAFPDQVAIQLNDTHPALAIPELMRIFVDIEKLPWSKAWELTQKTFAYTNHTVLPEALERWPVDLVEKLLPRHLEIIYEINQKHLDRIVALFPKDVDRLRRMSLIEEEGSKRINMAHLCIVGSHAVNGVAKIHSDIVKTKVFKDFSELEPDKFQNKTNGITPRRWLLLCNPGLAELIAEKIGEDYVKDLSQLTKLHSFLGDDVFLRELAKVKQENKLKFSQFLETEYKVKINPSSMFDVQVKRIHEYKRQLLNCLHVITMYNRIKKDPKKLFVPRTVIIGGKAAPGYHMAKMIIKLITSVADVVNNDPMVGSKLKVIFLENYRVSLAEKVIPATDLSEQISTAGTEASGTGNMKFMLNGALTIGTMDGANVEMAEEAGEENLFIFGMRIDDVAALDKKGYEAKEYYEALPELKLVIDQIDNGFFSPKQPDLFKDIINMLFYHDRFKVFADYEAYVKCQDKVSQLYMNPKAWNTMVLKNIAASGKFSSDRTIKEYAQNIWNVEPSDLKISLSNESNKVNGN
From the text: The purified glycogen phosphorylase (GP) enzyme, wherein glycogen phosphorylase is in the activated “a” state, referred to as human liver glycogen phosphorylase a (HLGPa), can be obtained according to the following procedures.
Human liver glycogen phosphorylase cDNA was amplified by polymerase chain reaction (PCR) from a commercially available human liver cDNA library (BD Biosciences). The cDNA was amplified as 2 overlapping fragments using the primers 5′[…]3′ with 5′[…]3′ and 5′[…]3′ with 5′[…]3′. PCR conditions were 94° C. 1 min., 55° C. 1 min., 72° C. 2 min. for 40 cycles using the enzyme Pfu Turbo (Stratagene), 0.5% DMSO, 250 uM each nucleotide triphosphate, and 0.4 uM each primer plus the buffer recommended by the polymerase manufacturer. Each PCR fragment was molecularly cloned and the DNA sequence of each insert was determined. […] The DNA sequence of both strands of the cDNA in pTXK1007LTev was determined. […]
Frozen purified glycogen phosphorylase (HLGPb) was thawed in at 4° C. then dialyzed overnight into 50 mM HEPES, 100 mM NaCl, pH 7.4. […] The degree of phosphorylation was monitored by following the increase in activity at 10 minute intervals using the assay system outlined below. […]

male CD rats = experiment: In vivo glucagon challenge model; parameters: species or system rat; details: glucagon 10 ug/kg + Sandostatin 0.5 mg/kg i.v. 2 hr after dosing, serum glucose 0-20 min
Method: Jugular vein cannulated male CD rats (220-260 g) (Charles Rivers, Raleigh, N.C.) were received 1-2 days after cannulation, housed individually on Alpha-dri™ bedding (Shepherd Specialty Papers, Inc., Kalamazoo, Mich.) with free access to food (Lab Diet 5001, PMI Nutrition International, Brentwood, Mo.) and water and maintained on a 12 h light/dark cycle at 21° C. and 50% relative humidity for 3-4 days prior to the glucagon challenge studies. On the day of the study, the rats were sorted by body weight into treatment groups (N=4-5) and housed individually in shoe box cages with clean Alpha-dri bedding. The cannula lines were opened by removal of 0.2 ml blood and flushed with 0.2 ml sterile saline. After a one hour acclimation, blood samples were collected to determine basal glucose and the rats were orally dosed with vehicle (5% DMSO: 30% Solutol HS15: 20% PEG400: 45% 25 mM N-methylglucamine) or drug (5 ml/kg). Two hr after drug dosing, a time zero blood sample (0.4 ml) was collected for determination of glucose and the rats were dosed through the jugular vein with Sandostatin, 0.5 mg/kg, (Novartis Pharmaceuticals Corp., East Hanover, N.J.) and glucagon, 10 ug/kg (Bedford Laboratories, Bedford, Ohio). Blood samples were collected after 10 and 20 min for glucose determination. Whole blood was placed in a Terumo Capiject blood collection tube (Terumo Medical Corp., Elkton, Md.), allowed to sit at room temperature for 20-30 minutes and then centrifuged (3,000×G) to obtain serum. Serum levels of glucose were determined using an Olympus AU640™ clinical chemistry immuno-analyzer (Olympus America Inc., Melville, N.Y.). The % reduction (% R) of the vehicle glucose AUC was calculated for each drug treatment using the formula % reduction=100*1−(AUC drug/AUC vehicle), where AUG was calculated from serum glucose values using the equation AUG=(T0+T10)/2*10+(T10+T20)/2*10−(T0*20).

IC50 [1]: 4 nM
Structure (SMILES): COCCOc1ccc(C(=O)N[C@H](C(=O)O)[C@@H](C)OC(C)(C)C)c(NC(=O)Nc2c(C)cc(CC3CC3)cc2C)c1 [Example 1, N-[(2-[({[4-(Cyclopropylmethyl)-2,6-dimethylphenyl]amino}carbonyl)amino]-4-{[2-(methyloxy)ethyl]oxy}phenyl)carbonyl]-O-(1,1-dimethylethyl)-L-threonine]
% R (% reduction of the vehicle glucose AUC) (male CD rats; 0.1 mg/kg oral): 4%
% R (% reduction of the vehicle glucose AUC) (male CD rats; 0.5 mg/kg oral): 36%
% R (% reduction of the vehicle glucose AUC) (male CD rats; 2 mg/kg oral): 48%
% R (% reduction of the vehicle glucose AUC) (male CD rats; 5 mg/kg oral): 76%
